This passage reports IC50 results from patent US4738970A, “Benzimidazolyl-thio-tetrahydroquinolines and anti-peptic ulcer compositions containing the same” (Otsuka Pharmaceutical Co., Ltd., priority 1984, dated 1988).

This test concerns the target T1, H^+ -K^+ -ATPase (Sus scrofa, UniProt P19156).
T1 construct: which was prepared from the stomach of swine; from tissue; host or cells: stomach of swine
Put plainly: Inhibitory Effect Test for the Activity of H^+ -K^+ -ATPase. The following applies: H+-K+-ATPase from the stomach of swine; preincubation pH 6.1, room temperature 30 min; reaction pH 7.4, 37° C. 30 min; read-out: IC50 (50% inhibition dosage). In kind it is biochemical. The procedure:
H^+ -K^+ -ATPase (hydrogen-potassium-activated adenosine triphosphatase) (protein content: 10 mcg) which was prepared from the stomach of swine was added to PIPES-tris[buffer PIPES-tris(hydroxymethyl)-2-amino-1,3-propanediol buffer (pH=6.1) containing 2 mM of piperazine-N,N'-bis(2-ethanesulfonic acid)], then the resulting mixture was let allowed to stand at room temperature.
Each of the test compounds was dissolved in dimethylformamide, and the dimethylformamide solution was added to the above-mentioned H^+ -K^+ -ATPase buffer solution so as to adjust the final concentration of the test compound to 1.0%. Each of thus prepared mixture was reacted at room temperature for 30 minutes.
Next, the above-mentioned reaction mixture was divided into two portions, and to the one portion thereof was added 1 ml of 75 mM PIPES-tris buffer solution (pH=7.4) (containing 4 mM of MgCl2, 4 mM of Na2 ATP and 20 mM of KCl), on the other hand, to another portion of the reaction mixture was added 1 ml of 75 mM PIPES-tris buffer solution (pH=7.4) (containing 4 mM of MgCl2 and 4 mM of Na2 ATP), respectively. Each of these two series of sample solutions was separately reacted at 37° C. for 30 minutes. Then to each of these reaction mixtures was added 0.3 ml of 40% trichloroacetic acid to terminate the reaction, and was subjected to centrifugal separation at 3,000 rpm for 10 minutes to obtain the supernatent. Next, the inorganic phosphoric acid formed in the reaction mixture was determined by a method according to the article by C. H. Fiske and Y. Subbarow: J. Biol. Chem., Vol. 66, pages 375-400, (1925). The difference of the value obtained by substracting the quantity of inorganic phosphoric acid determined by using PIPES-tris buffer solution without containing 20 mM of KCl from the quantity of inorganic phosphoric acid determined by using PIPES-tris buffer solution containing 20 mM of KCl, was converted into as activity value of enzyme with respect to the unit protein and unit time.
Inhibitory rate (%) of each of the test compounds was obtained from the activity value of the enzyme at the respective dosages in the test groups and those of obtained from the control group, then IC50 (50% inhibition dosage of each of the test compounds) was calculated from the inhibitory rate (%).

Broadly, the IC50 is the concentration that gives 50% inhibition.

T1 sequence (P19156 2-1034 limits assumed): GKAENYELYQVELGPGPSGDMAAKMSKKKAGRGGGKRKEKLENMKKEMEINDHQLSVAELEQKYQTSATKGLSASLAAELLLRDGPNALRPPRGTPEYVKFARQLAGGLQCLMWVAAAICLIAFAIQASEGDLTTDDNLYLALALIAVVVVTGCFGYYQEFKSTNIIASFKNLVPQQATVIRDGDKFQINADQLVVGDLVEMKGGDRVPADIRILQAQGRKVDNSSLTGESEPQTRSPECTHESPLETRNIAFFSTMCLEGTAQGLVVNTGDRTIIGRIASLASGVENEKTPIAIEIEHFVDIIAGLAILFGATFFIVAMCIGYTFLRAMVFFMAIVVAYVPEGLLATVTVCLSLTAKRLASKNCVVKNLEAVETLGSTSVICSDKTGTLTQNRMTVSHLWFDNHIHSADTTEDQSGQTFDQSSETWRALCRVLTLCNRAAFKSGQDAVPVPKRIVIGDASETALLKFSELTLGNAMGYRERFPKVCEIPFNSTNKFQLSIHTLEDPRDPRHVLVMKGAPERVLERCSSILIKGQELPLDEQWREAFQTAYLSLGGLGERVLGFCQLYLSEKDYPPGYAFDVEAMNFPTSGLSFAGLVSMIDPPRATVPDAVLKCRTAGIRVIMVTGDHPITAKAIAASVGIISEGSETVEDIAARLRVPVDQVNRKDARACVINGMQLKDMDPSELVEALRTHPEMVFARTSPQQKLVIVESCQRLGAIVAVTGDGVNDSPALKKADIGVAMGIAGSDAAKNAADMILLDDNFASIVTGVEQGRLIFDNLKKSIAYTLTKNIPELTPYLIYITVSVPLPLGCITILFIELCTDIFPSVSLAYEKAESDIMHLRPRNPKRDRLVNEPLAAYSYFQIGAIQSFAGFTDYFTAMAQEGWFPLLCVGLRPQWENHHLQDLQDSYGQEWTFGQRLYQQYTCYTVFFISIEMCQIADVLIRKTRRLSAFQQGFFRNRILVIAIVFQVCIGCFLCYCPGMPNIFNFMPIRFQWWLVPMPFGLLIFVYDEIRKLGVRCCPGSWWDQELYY
T1 sequence (P18434 whole entry partner): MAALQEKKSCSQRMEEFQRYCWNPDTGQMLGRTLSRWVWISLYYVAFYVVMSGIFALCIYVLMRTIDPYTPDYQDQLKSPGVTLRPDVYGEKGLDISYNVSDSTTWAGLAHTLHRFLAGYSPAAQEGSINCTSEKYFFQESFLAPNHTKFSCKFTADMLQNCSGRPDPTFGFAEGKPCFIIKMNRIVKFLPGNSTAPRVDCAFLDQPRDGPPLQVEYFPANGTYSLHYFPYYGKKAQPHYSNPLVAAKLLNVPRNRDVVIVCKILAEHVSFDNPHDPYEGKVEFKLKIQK

With `C=CCOc1c(C)cnc2c1CCCC2[S+]([O-])c1nc2cc(C)c(C)cc2[nH]1` (centres unmarked) [Test compound 4, 4-Allyloxy-8-(5,6-dimethyl-2-benzimidazolyl)-sulfinyl-3-methyl-5,6,7,8-tetrahydroquinoline], the IC50 amounted to 610 nM.

In the case of `C=CCOc1c(C)cnc2c1CCCC2[S+]([O-])c1nc2ccc(F)cc2[nH]1` (centres unmarked) [Test compound 11, 4-Allyloxy-8-(5-fluoro-2-benzimidazolyl)-sulfinyl-3-methyl-5,6,7,8-tetrahydroquinoline], the IC50 stood at 730 nM.

Take `CCOc1cc2[nH]c([S+]([O-])C3CCCc4c3ncc(C)c4OC)nc2cc1F` (centres unmarked) [Test compound 42, 3-Methyl-4-methoxy-8-(5-ethoxy-6-fluoro-2-benzimidazolyl)sulfinyl-5,6,7,8-tetrahydroquinoline]: the half-inhibitory concentration (IC50) worked out at 240 nM. As for `COc1c(C)cnc(C[S+]([O-])c2nc3nc(Br)ccc3[nH]2)c1C` (centres unmarked) [Test compound 45, 5-Bromo-2-[(3,5-dimethyl-4-methoxy-2-pyridyl)methylsulfinyl]imidazo[4,5-b]pyridine], the half-maximal inhibitory concentration (IC50) was found to be 2340 nM. For `COc1ccc2nc([S+]([O-])C3CCCc4ccc(Cl)nc43)[nH]c2c1` (centres unmarked) [Test compound 21, 2-Chloro-8-(5-methoxy-2-benzimidazolyl)-sulfinyl-5,6,7,8-tetrahydroquinoline] the value was 2700 nM; for `Cc1cccc2nc([S+]([O-])C3CCCc4cccnc43)[nH]c12` (centres unmarked) [Test compound 33, 8-(4-Methyl-2-benzimidazolyl)sulfinyl-5,6,7,8-tetrahydroquinoline], 2600 nM; for `C=CCOc1c(C)cnc2c1CCCC2[S+]([O-])c1nc2cc(Cl)c(Cl)cc2[nH]1` (centres unmarked) [Test compound 5, 4-Allyloxy-8-(5,6-dichloro-2-benzimidazolyl)-sulfinyl-3-methyl-5,6,7,8-tetrahydroquinoline], 310 nM. With `C#CCOc1c(C)cnc2c1CCCC2[S+]([O-])c1nc2ccc(F)cc2[nH]1` (centres unmarked) [Test compound 3, 8-(5-Fluoro-2-benzimidazolyl)sulfinyl-3-methyl-4-propargyloxy-5,6,7,8-tetrahydroquinoline], the concentration for half-maximal inhibition (IC50) was 1100 nM.

As for `C#CCOc1c(C)cnc2c1CCCC2[S+]([O-])c1nc2cc(C)c(C)cc2[nH]1` (centres unmarked) [Test compound 6, 8-(5,6-Dimethyl-2-benzimidazolyl)sulfinyl-3-methyl-4-propargyloxy-5,6,7,8-tetrahydroquinoline], the IC50 is 460 nM. For `O=[N+]([O-])c1ccc2nc([S+]([O-])C3CCCc4cccnc43)[nH]c2c1` (centres unmarked) [Test compound 31, 8-(5-Nitro-2-benzimidazolyl)sulfinyl-5,6,7,8-tetrahydroquinoline], the IC50 is 2900 nM. For the molecule `COc1ccc2nc([S+]([O-])C3CCCc4c3ncc(C)c4OC)[nH]c2c1` (centres unmarked) [Test compound 49, 3-Methyl-4-methoxy-8-(5-methoxy-2-benzimidazolyl)sulfinyl-5,6,7,8-tetrahydroquinoline], the IC50 was determined as 280 nM. As to `[O-][S+](c1nc2ccc(C(F)(F)F)cc2[nH]1)C1CCCc2cccnc21` (centres unmarked) [Test compound 28, 8-(5-Trifluoromethyl-2-benzimidazolyl)-sulfinyl-5,6,7,8-tetrahydroquinoline], the IC50 is 1900 nM. Take `C=CCOc1c(C)cnc2c1CCCC2[S+]([O-])c1nc2cc(F)c(F)cc2[nH]1` (centres unmarked) [Test compound 2, 4-Allyloxy-8-(5,6-difluoro-2-benzimidazolyl)-sulfinyl-3-methyl-5,6,7,8-tetrahydroquinoline]: the IC50 was 1800 nM. For `COCCOc1c(C)cnc2c1CCCC2[S+]([O-])c1nc2ccc(F)cc2[nH]1` (centres unmarked) [Test compound 10, 8-(5-Fluoro-2-benzimidazolyl)sulfinyl-4-(2-methoxyethoxy)-3-methyl-5,6,7,8-tetrahydroquinoline], the half-inhibitory concentration (IC50) was 870 nM. On to `COc1ccc2nc([S+]([O-])C3CCCc4cccnc43)[nH]c2c1` (centres unmarked) [Test compound 23, 8-(5-Methoxy-2-benzimidazolyl)sulfinyl-5,6,7,8-tetrahydroquinoline], for which the concentration for half-maximal inhibition (IC50) is 1900 nM. As to `COc1c(C)cnc2c1CCCC2[S+]([O-])c1nc2ccc(F)cc2[nH]1` (centres unmarked) [Test compound 34, 3-Methyl-4-methoxy-8-(5-fluoro-2-benzimidazolyl)sulfinyl-5,6,7,8-tetrahydroquinoline], the concentration for half-maximal inhibition (IC50) amounted to 220 nM. `C=CCOc1c(C)cnc2c1CCCC2[S+]([O-])c1nc2ccccc2[nH]1` (centres unmarked) [Test compound 1, 4-Allyloxy-8-(2-benzimidazolyl)sulfinyl-3-methyl-5,6,7,8-tetrahydroquinoline]: the IC50 was found to be 740 nM. For `C#CCOc1c(C)cnc2c1CCCC2[S+]([O-])c1nc2cc(Cl)c(Cl)cc2[nH]1` (centres unmarked) [Test compound 8, 8-(5,6-Dichloro-2-benzimidazolyl)sulfinyl-3-methyl-4-propargyloxy-5,6,7,8-tetrahydroquinoline] the value was 290 nM; for `COc1c(C)cnc2c1CCCC2[S+]([O-])c1nc2cc(Cl)c(Cl)cc2[nH]1` (centres unmarked) [Test compound 41, 3-Methyl-4-methoxy-8-(5,6-dichloro-2-benzimidazolyl)sulfinyl-5,6,7,8-tetrahydroquinoline], 99 nM.

For the molecule `Cc1cnc2c(c1)CCCC2[S+]([O-])c1nc2cc(C)c(C)cc2[nH]1` (centres unmarked) [Test compound 53, 3-Methyl-8-(5,6-dimethyl-2-benzimidazolyl)-sulfinyl-5,6,7,8-tetrahydroquinoline], the IC50 was determined as 580 nM. With `CCOc1cc2[nH]c([S+]([O-])C3CCCc4cccnc43)nc2cc1F` (centres unmarked) [Test compound 37, 8-(5-Ethoxy-6-fluoro-2-benzimidazolyl)-sulfinyl-5,6,7,8-tetrahydroquinoline], the half-inhibitory concentration (IC50) turned out to be 3400 nM. With `COc1cc2nc([S+]([O-])C3CCCc4c3ncc(C)c4OC)[nH]c2cc1F` (centres unmarked) [Test compound 48, 3-Methyl-4-methoxy-8-(5-fluoro-6-methoxy-2-benzimidazolyl)sulfinyl-5,6,7,8-tetrahydroquinoline], the IC50 is 310 nM. With `Cc1cnc2c(c1)CCCC2[S+]([O-])c1nc2ccc(C(F)(F)F)cc2[nH]1` (centres unmarked) [Test compound 27, 3-Methyl-8-(5-trifluoromethyl-2-benzimidazolyl)sulfinyl-5,6,7,8-tetrahydroquinoline] the figure was 1500 nM; with `Cc1cnc2c(c1)C([S+]([O-])c1nc3ccc(C(F)(F)F)cc3[nH]1)CCC2` (centres unmarked) [Test compound 39, 3-Methyl-5-(5-trifluoromethyl-2-benzimidazolyl)sulfinyl-5,6,7,8-tetrahydroquinoline], 2980 nM. With `[O-][S+](c1nc2cc(Cl)c(Cl)cc2[nH]1)C1CCCc2cccnc21` (centres unmarked) [Test compound 36, 8-(5,6-Dichloro-2-benzimidazolyl)sulfinyl-5,6,7,8-tetrahydroquinoline] the figure was 700 nM; with `COc1cc2nc([S+]([O-])C3CCCc4cc(C)cnc43)[nH]c2cc1OC` (centres unmarked) [Test compound 19, 3-Methyl-8-(5,6-dimethoxy-2-benzimidazolyl)-sulfinyl-5,6,7,8-tetrahydroquinoline], 3100 nM. For `C#CCOc1c(C)cnc2c1CCCC2[S+]([O-])c1nc2ccccc2[nH]1` (centres unmarked) [Test compound 7, 8-(2-Benzimidazolyl)sulfinyl-3-methyl-4-propargyloxy-5,6,7,8-tetrahydroquinoline] the value was 1200 nM; for `COc1c(C)cnc(C[S+]([O-])c2nc3cnccc3[nH]2)c1C` (centres unmarked) [Test compound 46, 2-[(3,5-Dimethyl-4-methoxy-2-pyridyl)-methylsulfinyl]imidazo[4,5-c]pyridine], 29200 nM; for `COc1ccc2nc([S+]([O-])C3CCCc4cc(C)c(Cl)nc43)[nH]c2c1` (centres unmarked) [Test compound 22, 2-Chloro-3-methyl-8-(5-methoxy-2-benzimidazolyl)sulfinyl-5,6,7,8-tetrahydroquinoline], 2100 nM.

For the molecule `COc1ccc2nc([S+]([O-])C3CCCc4c(OC)ccnc43)[nH]c2c1` (centres unmarked) [Test compound 24, 4-Methoxy-8-(5-methoxy-2-benzimidazolyl)-sulfinyl-5,6,7,8-tetrahydroquinoline], the half-inhibitory concentration (IC50) was determined as 7600 nM. As for `CC(=O)c1ccc2nc([S+]([O-])C3CCCc4cc(C)cnc43)[nH]c2c1` (centres unmarked) [Test compound 18, 3-Methyl-8-(5-acetyl-2-benzimidazolyl)-sulfinyl-5,6,7,8-tetrahydroquinoline], the IC50 came out at 3200 nM. Regarding `COc1c(C)cnc2c1CCCC2[S+]([O-])c1nc2ccccc2[nH]1` (centres unmarked) [Test compound 35, 3-Methyl-4-methoxy-8-(2-benzimidazolyl)-sulfinyl-5,6,7,8-tetrahydroquinoline], the IC50 is 250 nM.
